Assay results as given in patent EP3915971A1, “PHENYL-S(O)N-PHENYLAMIDINES AND THE USE THEREOF AS FUNGICIDES” (Bayer Aktiengesellschaft, priority 2020, dated 2021).

Tested on: Phakospora pachyrhizi
Test: in vivo preventive test on Phakospora pachyrhizi (soybean rust)
Settings: 500 ppm
Procedure: Example A: in vivo preventive test on Phakospora pachyrhizi (soybean rust) [table] The active ingredients were made soluble and homogenized in a mixture of Dimethyl sulfoxide/Acetone/ /Tween® 80 and then diluted in water to the desired concentration. The young plants of soybean were treated by spraying the active ingredient prepared as described above. Control plants were treated only with an aqueous solution of Acetone/Dimethyl sulfoxide/ Tween® 80. After 24 hours, the plants were contaminated by spraying the leaves with an aqueous suspension of Phakospora pachyrhizi spores. The contaminated soybean plants were incubated for 24 hours at 24°C and at 100% relative humidity and then for 10 days at 24°C and at 70-80% relative humidity. The test was evaluated 11 days after the inoculation. 0% means an efficacy which corresponds to that of the control plants while an efficacy of 100% means that no disease was observed.

Row | SMILES | efficacy
1 | CCN(C)C=Nc1cc(C)c([S+]([O-])c2ccccc2C#N)cc1C (centres unmarked) [Example I-052, N'-[4-(2-cyanophcnyl)sulfinyl-2,5-dimethylphenyl]-N-ethyl-N-methylmethanimidamide] | at least 70%
2 | CCc1cc(Sc2ccccc2F)c(C)cc1N=CN(C)CC [Example I-087] | at least 70%

Same assay, conditions: Glycine max, 264 h; 500 ppm of active ingredient; preventive spray on young soybean plants, inoculation after 24 hours, evaluated 11 days after inoculation; 0% = control plants, 100% = no disease; read-out: efficacy

Row | SMILES | pest or weed control at 500 ppm
3 | CCN(C)C=Nc1cc(Br)c(Sc2ccccc2)cc1C [Example I-039, N'-(5-bromo-2-methyl-4-phenylsulfanylphenyl)-N-ethyl-N-methylmethanimidamide] | ≥ 70%
4 | CCN(C)C=Nc1cc(Cl)c(Sc2ccccc2)cc1C [Example I-041, N'-(5-chloro-2-methyl-4-phenylsulfanylphenyl)-N-ethyl-N-methylmethanimidamide] | ≥ 70%
5 | CCN(C)C=Nc1cc(Br)c(Sc2ccccc2C)cc1C [Example I-042, N'-[5-bromo-2-methyl-4-[(2-methylphenyl)thio]phenyl]-N-ethyl-N-methylmethanimidamide] | ≥ 70%
6 | CCN(C)C=Nc1cc(Br)c(S(=O)(=O)c2ccccc2Cl)cc1C [Example I-044, N'-[5-bromo-4-(2-chlorophenyl)sulfonyl-2-methylphenyl]-N-ethyl-N-methylmethanimidamide] | ≥ 70%
7 | CCN(C)C=Nc1cc(Br)c(S(=O)(=O)c2ccccc2C)cc1C [Example I-045, N'-[5-bromo-2-methyl-4-(2-methylphenyl)sulfonylphenyl]-N-ethyl-N-methylmethanimidamide] | ≥ 70%
8 | CCN(C)C=Nc1cc(Br)c(Sc2ccccc2F)cc1C [Example I-046, N'-[5-bromo-4-[(2-fluorophenyl)thio]-2-methylphenyl]-N-ethyl-N-methylmethanimidamide] | ≥ 70%
9 | CCN(C)C=Nc1cc(Br)c(Sc2ccccc2Cl)cc1C [Example I-047, N'-[5-bromo-4-[(2-chlorophenyl)thio]-2-methylphenyl]-N-ethyl-N-methylmethanimidamide] | ≥ 70%
10 | CCN(C)C=Nc1cc(C#N)c(Sc2ccccc2)cc1C [Example I-054, N'-(5-cyano-2-methyl-4-phenylsulfanylphenyl)-N-ethyl-N-methylmethanimidamide] | ≥ 70%
11 | CCN(C)C=Nc1cc(C#N)c(Sc2ccccc2C)cc1C [Example I-058, N'-[5-cyano-2-methyl-4-[(2-methylphenyl)thio]phenyl]-N-ethyl-N-methylmethanimidamide] | ≥ 70%
12 | CCN(C)C=Nc1cc(C#N)c(Sc2ccccc2Cl)cc1C [Example I-060, N'-[4-[(2-chlorophenyl)thio]-5-cyano-2-methylphenyl]-N-ethyl-N-methylmethanimidamide] | ≥ 70%
13 | CCN(C)C=Nc1cc(Cl)c(Sc2ccccc2Cl)cc1C [Example I-066, N'-[5-chloro-4-[(2-chlorophenyl)thio]-2-methylphenyl]-N-ethyl-N-methylmethanimidamide] | ≥ 70%
14 | CCN(C)C=Nc1cc(Cl)c(Sc2ccccc2C#N)cc1C [Example I-067, N'-[5-chloro-4-[(2-cyanophenyl)thio]-2-methylphenyl]-N-ethyl-N-methylmethanimidamide] | ≥ 70%
15 | CCN(C)C=Nc1cc(Br)c(Sc2ccccc2C#N)cc1C [Example I-068, N'-[5-bromo-4-[(2-cyanophenyl)thio]-2-methylphenyl]-N-ethyl-N-methylmethanimidamide] | ≥ 70%
16 | CCN(C)C=Nc1cc(C)c(Sc2ccccc2C#N)cc1C [Example I-069, N'-[4-[(2-cyanophenyl)thio]-2,5-dimethylphenyl]-N-ethyl-N-methylmethanimidamide] | ≥ 70%
17 | CCN(C)C=Nc1cc(C)c(Sc2ccccc2F)cc1Br [Example I-077, N'-[2-bromo-4-[(2-fluorophenyl)thio]-5-methylphenyl]-N-ethyl-N-methylmethanimidamide] | ≥ 70%
18 | CCN(C)C=Nc1cc(C)c(Sc2ccccc2C)cc1Br [Example I-078, N'-[2-bromo-5-methyl-4-[(2-methylphenyl)thio]phenyl]-N-ethyl-N-methylmethanimidamide] | ≥ 70%
19 | CCN(C)C=Nc1cc(C)c(Sc2ccccc2F)cc1C(C)C [Example I-082, N-ethyl-N'-[4-[(2-fluorophenyl)thio]-2-isopropyl-5-methylphenyl]-N-methylmethanimidamide] | ≥ 70%
20 | CCN(C)C=Nc1cc(C)c(Sc2ccccc2C)cc1C1CC1 [Example I-085, N'-[2-cyclopropyl-5-methyl-4-[(2-methylphenyl)thio]phenyl]-N-ethyl-N-methylmethanimidamide] | ≥ 70%
21 | CCN(C)C=Nc1cc(C)c(Sc2ccccc2)cc1C1CC1 [Example I-090, N'-(2-cyclopropyl-5-methyl-4-phenylsulfanylphenyl)-N-ethyl-N-methylmethanimidamide] | ≥ 70%
22 | CCc1cc(S(=O)(=O)c2ccccc2C)c(C)cc1N=CN(C)CC [Example I-091, N-ethyl-N'-[2-ethyl-5-methyl-4-(2-methylphenyl)sulfonylphenyl]-N-methylmethanimidamide] | ≥ 70%
23 | CCN(C)C=Nc1cc(C)c(Sc2ccccc2F)cc1C1CC1 [Example I-097, N'-[2-cyclopropyl-4-[(2-fluorophenyl)thio]-5-methylphenyl]-N-ethyl-N-methylmethanimidamide] | ≥ 70%
24 | CCN(C)C=Nc1cc(C)c(Sc2ccccc2Cl)cc1Br [Example I-098, N'-[2-bromo-4-[(2-chlorophenyl)thio]-5-methylphenyl]-N-ethyl-N-methylmethanimidamide] | ≥ 70%
25 | CCN(C)C=Nc1cc(C)c(Sc2ccccc2Cl)cc1C1CC1 [Example I-099, N'-[4-[(2-chlorophenyl)thio]-2-cyclopropyl-5-methylphenyl]-N-ethyl-N-methylmethanimidamide] | ≥ 70%
26 | CCN(C)C=Nc1cc(C)c(Sc2ccccc2C#N)cc1C1CC1 [Example I-100, N'-[4-[(2-cyanophenyl)thio]-2-cyclopropyl-5-methylphenyl]-N-ethyl-N-methylmethanimidamide] | ≥ 70%
27 | CCN(C)C=Nc1cc(C)c(Sc2ccccc2C#N)cc1C(C)C [Example I-101, N'-[4-[(2-cyanophenyl)thio]-2-isopropyl-5-methylphenyl]-N-ethyl-N-methylmethanimidamide] | ≥ 70%
28 | CCc1cc(Sc2ccccc2C#N)c(C)cc1N=CN(C)CC [Example I-102, N'-[4-[(2-cyanophenyl)thio]-2-ethyl-5-methylphenyl]-N-ethyl-N-methylmethanimidamide] | ≥ 70%
29 | CCc1cc(Sc2ccccc2Cl)c(C)cc1N=CN(C)CC [Example I-103, N'-[4-[(2-chlorophenyl)thio]-2-ethyl-5-methylphenyl]-N-ethyl-N-methylmethanimidamide] | ≥ 70%

Tested on: not listed separately
Test: LogP measurement by HPLC on reversed phase columns (EEC directive 79/831 Annex V.A8)
Format: physicochemical
Settings: method [a]: LC-UV, acidic range, 0.1% formic acid in water and acetonitrile as eluent (linear gradient 10% to 95% acetonitrile)
Procedure: Measurement of LogP values was performed according to EEC directive 79/831 Annex V.A8 by HPLC (High Performance Liquid Chromatography) on reversed phase columns with the following methods: • ^[a] LogP value is determined by measurement of LC-UV, in an acidic range, with 0.1% formic acid in water and acetonitrile as eluent (linear gradient from 10% acetonitrile to 95% acetonitrile). • ^[b] LogP value is determined by measurement of LC-UV, in a neutral range, with 0.001 molar ammonium acetate solution in water and acetonitrile as eluent (linear gradient from 10% acetonitrile to 95% acetonitrile). • ^[c] LogP value is determined by measurement of LC-UV, in an acidic range, with 0.1% phosphoric acid and acetonitrile as eluent (linear gradient from 10% acetonitrile to 95% acetonitrile).
If more than one LogP value is available within the same method, all the values are given and separated by "+". […]

Row | chromatographic logP | SMILES
30 | 0.73 | CCN(C)C=Nc1cc(C)c([S+]([O-])c2ccccc2C#N)cc1C (centres unmarked) [Example I-052, N'-[4-(2-cyanophcnyl)sulfinyl-2,5-dimethylphenyl]-N-ethyl-N-methylmethanimidamide]
31 | 1.77 | CCc1cc(Sc2ccccc2F)c(C)cc1N=CN(C)CC [Example I-087]

Same assay, conditions: reversed phase HPLC columns, method [a]: LC-UV, acidic range, 0.1% formic acid in water and acetonitrile as eluent (linear gradient 10% to 95% acetonitrile)

Row | chromatographic logP | SMILES
32 | 1.66 | CCN(C)C=Nc1cc(Br)c(Sc2ccccc2)cc1C [Example I-039, N'-(5-bromo-2-methyl-4-phenylsulfanylphenyl)-N-ethyl-N-methylmethanimidamide]
33 | 1.63 | CCN(C)C=Nc1cc(Cl)c(Sc2ccccc2)cc1C [Example I-041, N'-(5-chloro-2-methyl-4-phenylsulfanylphenyl)-N-ethyl-N-methylmethanimidamide]
34 | 1.81 | CCN(C)C=Nc1cc(Br)c(Sc2ccccc2C)cc1C [Example I-042, N'-[5-bromo-2-methyl-4-[(2-methylphenyl)thio]phenyl]-N-ethyl-N-methylmethanimidamide]
35 | 1.58 | CCN(C)C=Nc1cc(Br)c(S(=O)(=O)c2ccccc2Cl)cc1C [Example I-044, N'-[5-bromo-4-(2-chlorophenyl)sulfonyl-2-methylphenyl]-N-ethyl-N-methylmethanimidamide]
36 | 1.53 | CCN(C)C=Nc1cc(Br)c(S(=O)(=O)c2ccccc2C)cc1C [Example I-045, N'-[5-bromo-2-methyl-4-(2-methylphenyl)sulfonylphenyl]-N-ethyl-N-methylmethanimidamide]
37 | 1.66 | CCN(C)C=Nc1cc(Br)c(Sc2ccccc2F)cc1C [Example I-046, N'-[5-bromo-4-[(2-fluorophenyl)thio]-2-methylphenyl]-N-ethyl-N-methylmethanimidamide]
38 | 1.84 | CCN(C)C=Nc1cc(Br)c(Sc2ccccc2Cl)cc1C [Example I-047, N'-[5-bromo-4-[(2-chlorophenyl)thio]-2-methylphenyl]-N-ethyl-N-methylmethanimidamide]
39 | 1.42 | CCN(C)C=Nc1cc(C#N)c(Sc2ccccc2)cc1C [Example I-054, N'-(5-cyano-2-methyl-4-phenylsulfanylphenyl)-N-ethyl-N-methylmethanimidamide]
40 | 1.61 | CCN(C)C=Nc1cc(C#N)c(Sc2ccccc2C)cc1C [Example I-058, N'-[5-cyano-2-methyl-4-[(2-methylphenyl)thio]phenyl]-N-ethyl-N-methylmethanimidamide]
41 | 1.66 | CCN(C)C=Nc1cc(C#N)c(Sc2ccccc2Cl)cc1C [Example I-060, N'-[4-[(2-chlorophenyl)thio]-5-cyano-2-methylphenyl]-N-ethyl-N-methylmethanimidamide]
42 | 1.84 | CCN(C)C=Nc1cc(Cl)c(Sc2ccccc2Cl)cc1C [Example I-066, N'-[5-chloro-4-[(2-chlorophenyl)thio]-2-methylphenyl]-N-ethyl-N-methylmethanimidamide]
43 | 1.53 | CCN(C)C=Nc1cc(Cl)c(Sc2ccccc2C#N)cc1C [Example I-067, N'-[5-chloro-4-[(2-cyanophenyl)thio]-2-methylphenyl]-N-ethyl-N-methylmethanimidamide]
44 | 1.53 | CCN(C)C=Nc1cc(Br)c(Sc2ccccc2C#N)cc1C [Example I-068, N'-[5-bromo-4-[(2-cyanophenyl)thio]-2-methylphenyl]-N-ethyl-N-methylmethanimidamide]
45 | 1.42 | CCN(C)C=Nc1cc(C)c(Sc2ccccc2C#N)cc1C [Example I-069, N'-[4-[(2-cyanophenyl)thio]-2,5-dimethylphenyl]-N-ethyl-N-methylmethanimidamide]
46 | 1.75 | CCN(C)C=Nc1cc(C)c(Sc2ccccc2F)cc1Br [Example I-077, N'-[2-bromo-4-[(2-fluorophenyl)thio]-5-methylphenyl]-N-ethyl-N-methylmethanimidamide]
47 | 1.92 | CCN(C)C=Nc1cc(C)c(Sc2ccccc2C)cc1Br [Example I-078, N'-[2-bromo-5-methyl-4-[(2-methylphenyl)thio]phenyl]-N-ethyl-N-methylmethanimidamide]
48 | 1.9 | CCN(C)C=Nc1cc(C)c(Sc2ccccc2F)cc1C(C)C [Example I-082, N-ethyl-N'-[4-[(2-fluorophenyl)thio]-2-isopropyl-5-methylphenyl]-N-methylmethanimidamide]
49 | 1.99 | CCN(C)C=Nc1cc(C)c(Sc2ccccc2C)cc1C1CC1 [Example I-085, N'-[2-cyclopropyl-5-methyl-4-[(2-methylphenyl)thio]phenyl]-N-ethyl-N-methylmethanimidamide]
50 | 1.77 | CCN(C)C=Nc1cc(C)c(Sc2ccccc2)cc1C1CC1 [Example I-090, N'-(2-cyclopropyl-5-methyl-4-phenylsulfanylphenyl)-N-ethyl-N-methylmethanimidamide]
51 | 1.37 | CCc1cc(S(=O)(=O)c2ccccc2C)c(C)cc1N=CN(C)CC [Example I-091, N-ethyl-N'-[2-ethyl-5-methyl-4-(2-methylphenyl)sulfonylphenyl]-N-methylmethanimidamide]
52 | 1.8 | CCN(C)C=Nc1cc(C)c(Sc2ccccc2F)cc1C1CC1 [Example I-097, N'-[2-cyclopropyl-4-[(2-fluorophenyl)thio]-5-methylphenyl]-N-ethyl-N-methylmethanimidamide]
53 | 2.05 | CCN(C)C=Nc1cc(C)c(Sc2ccccc2Cl)cc1Br [Example I-098, N'-[2-bromo-4-[(2-chlorophenyl)thio]-5-methylphenyl]-N-ethyl-N-methylmethanimidamide]
54 | 1.99 | CCN(C)C=Nc1cc(C)c(Sc2ccccc2Cl)cc1C1CC1 [Example I-099, N'-[4-[(2-chlorophenyl)thio]-2-cyclopropyl-5-methylphenyl]-N-ethyl-N-methylmethanimidamide]
55 | 1.6 | CCN(C)C=Nc1cc(C)c(Sc2ccccc2C#N)cc1C1CC1 [Example I-100, N'-[4-[(2-cyanophenyl)thio]-2-cyclopropyl-5-methylphenyl]-N-ethyl-N-methylmethanimidamide]
56 | 1.72 | CCN(C)C=Nc1cc(C)c(Sc2ccccc2C#N)cc1C(C)C [Example I-101, N'-[4-[(2-cyanophenyl)thio]-2-isopropyl-5-methylphenyl]-N-ethyl-N-methylmethanimidamide]
57 | 1.58 | CCc1cc(Sc2ccccc2C#N)c(C)cc1N=CN(C)CC [Example I-102, N'-[4-[(2-cyanophenyl)thio]-2-ethyl-5-methylphenyl]-N-ethyl-N-methylmethanimidamide]
58 | 1.99 | CCc1cc(Sc2ccccc2Cl)c(C)cc1N=CN(C)CC [Example I-103, N'-[4-[(2-chlorophenyl)thio]-2-ethyl-5-methylphenyl]-N-ethyl-N-methylmethanimidamide]

Same assay, conditions: reversed phase HPLC columns, method [b]: LC-UV, neutral range, 0.001 molar ammonium acetate solution in water and acetonitrile as eluent (linear gradient 10% to 95% acetonitrile)

Row | chromatographic logP | SMILES
59 | 4.74 | CCN(C)C=Nc1cc(C)c(Sc2ccccc2C#N)cc1C1CC1 [Example I-100, N'-[4-[(2-cyanophenyl)thio]-2-cyclopropyl-5-methylphenyl]-N-ethyl-N-methylmethanimidamide]
60 | 5.3 | CCN(C)C=Nc1cc(C)c(Sc2ccccc2C#N)cc1C(C)C [Example I-101, N'-[4-[(2-cyanophenyl)thio]-2-isopropyl-5-methylphenyl]-N-ethyl-N-methylmethanimidamide]
61 | 4.95 | CCc1cc(Sc2ccccc2C#N)c(C)cc1N=CN(C)CC [Example I-102, N'-[4-[(2-cyanophenyl)thio]-2-ethyl-5-methylphenyl]-N-ethyl-N-methylmethanimidamide]
62 | 6.2 | CCc1cc(Sc2ccccc2Cl)c(C)cc1N=CN(C)CC [Example I-103, N'-[4-[(2-chlorophenyl)thio]-2-ethyl-5-methylphenyl]-N-ethyl-N-methylmethanimidamide]
